In ChEMBL document CHEMBL6182926, “Design, Synthesis, and Biological Activity Evaluation of Deuterated Diphenyl Azole Alcohol-Based CYP51 Inhibitors” (J Med Chem, 2025):
In brackets after ≈: the same amount, converted by molar mass.

Legend:
Assay type in all cases: functional
[1] = test system: Candida albicans; assay: Antifungal activity against Candida albicans SC 5314 assessed as inhibition of visible growth
[2] = test system: Candida albicans; assay: Antifungal activity against Candida albicans CPCC 400616 assessed as inhibition of visible growth
[3] = test system: Candida tropicalis; assay: Antifungal activity against Candida tropicalis CGMCC 2.3739 assessed as inhibition of visible growth
[4] = test system: Candida parapsilosis; assay: Antifungal activity against Candida parapsilosis GIM 2.190 assessed as inhibition of visible growth; conditions: Lodderomyces parapsilosis
[5] = test system: Nakaseomyces glabratus; assay: Antifungal activity against Clinical isolate Candida glabrata assessed as inhibition of visible growth
[6] = test system: Pichia kudriavzevii; assay: Antifungal activity against Candida krusei AS 2.1045 assessed as inhibition of visible growth
[7] = test system: Cryptococcus neoformans; assay: Antifungal activity against Cryptococcus neoformans CGMCC 2.3161 assessed as inhibition of visible growth

| SMILES | MIC80 [1] [µg/mL] | MIC80 [2] [µg/mL] | MIC80 [3] [µg/mL] | MIC80 [4] [µg/mL] | MIC80 [5] [µg/mL] | MIC80 [6] [µg/mL] | MIC80 [7] [µg/mL] |
| --- | --- | --- | --- | --- | --- | --- | --- |
| CN(Cc1ccc(-c2ccc(C#N)cc2)cn1)CC(O)(Cn1cncn1)c1ccc(F)cc1F (stereo unspecified) | 0.012 (≈ 0.0261 µM) | 0.012 (≈ 0.0261 µM) | 0.012 (≈ 0.0261 µM) | 0.1 (≈ 0.217 µM) | 1.6 (≈ 3.47 µM) | 0.2 (≈ 0.434 µM) | 0.8 (≈ 1.74 µM) |
| CN(Cc1ccc(-c2ccc(OCC(F)(F)F)cc2)cn1)CC(O)(Cn1cncn1)c1ccc(F)cc1F (stereo unspecified) | 0.012 (≈ 0.0225 µM) | 0.012 (≈ 0.0225 µM) | 0.012 (≈ 0.0225 µM) | 0.012 (≈ 0.0225 µM) | 0.1 (≈ 0.187 µM) | 0.05 (≈ 0.0937 µM) | 0.1 (≈ 0.187 µM) |
| CN(Cc1nc(-c2ccc(OC(F)(F)F)cc2)cs1)CC(O)(Cn1cncn1)c1ccc(F)cc1F (stereo unspecified) | 0.012 (≈ 0.0228 µM) | 0.025 (≈ 0.0476 µM) | 0.025 (≈ 0.0476 µM) | 0.025 (≈ 0.0476 µM) | 0.4 (≈ 0.761 µM) | 0.2 (≈ 0.381 µM) | 0.1 (≈ 0.19 µM) |
| CN(Cc1ccc(-c2ccc(OC(F)(F)F)cc2)s1)CC(O)(Cn1cncn1)c1ccc(F)cc1F (stereo unspecified) | 0.006 (≈ 0.0114 µM) | 0.012 (≈ 0.0229 µM) | 0.006 (≈ 0.0114 µM) | 0.006 (≈ 0.0114 µM) | 0.1 (≈ 0.191 µM) | 0.05 (≈ 0.0953 µM) | 0.05 (≈ 0.0953 µM) |
| CN(Cc1nc(-c2ccc(C(F)(F)F)cc2)cs1)CC(O)(Cn1cncn1)c1ccc(F)cc1F (stereo unspecified) | 0.012 (≈ 0.0236 µM) | 0.025 (≈ 0.0491 µM) | 0.025 (≈ 0.0491 µM) | 0.012 (≈ 0.0236 µM) | 3.2 (≈ 6.28 µM) | 0.8 (≈ 1.57 µM) | 0.2 (≈ 0.393 µM) |
| COc1ccc(-c2ccc(CN(C)CC(O)(Cn3cncn3)c3ccc(F)cc3F)nc2)cc1 (stereo unspecified) | 0.012 (≈ 0.0258 µM) | 0.012 (≈ 0.0258 µM) | 0.012 (≈ 0.0258 µM) | 0.025 (≈ 0.0537 µM) | 0.4 (≈ 0.859 µM) | 0.1 (≈ 0.215 µM) | 0.4 (≈ 0.859 µM) |
| CN(Cc1cnc(-c2ccc(C(F)(F)F)cc2)s1)CC(O)(Cn1cncn1)c1ccc(F)cc1F (stereo unspecified) | 0.025 (≈ 0.0491 µM) | 0.025 (≈ 0.0491 µM) | 0.006 (≈ 0.0118 µM) | 0.05 (≈ 0.0981 µM) | 0.2 (≈ 0.393 µM) | 0.2 (≈ 0.393 µM) | 0.4 (≈ 0.785 µM) |
| CN(Cc1ccc(-c2ccccc2)cn1)CC(O)(Cn1cncn1)c1ccc(F)cc1F (stereo unspecified) | 0.012 (≈ 0.0276 µM) | 0.025 (≈ 0.0574 µM) | 0.025 (≈ 0.0574 µM) | 0.025 (≈ 0.0574 µM) | 0.8 (≈ 1.84 µM) | 0.2 (≈ 0.459 µM) | 0.1 (≈ 0.23 µM) |
| CN(Cc1ccc(-c2ccccc2Cl)cn1)CC(O)(Cn1cncn1)c1ccc(F)cc1F (stereo unspecified) | 0.025 (≈ 0.0532 µM) | 0.1 (≈ 0.213 µM) | 0.012 (≈ 0.0255 µM) | 0.025 (≈ 0.0532 µM) | 0.8 (≈ 1.7 µM) | 0.4 (≈ 0.851 µM) | 0.1 (≈ 0.213 µM) |
| CN(Cc1ccc(-c2ccc(Cl)cc2)cn1)CC(O)(Cn1cncn1)c1ccc(F)cc1F (stereo unspecified) | 0.012 (≈ 0.0255 µM) | 0.012 (≈ 0.0255 µM) | 0.012 (≈ 0.0255 µM) | 0.006 (≈ 0.0128 µM) | 0.05 (≈ 0.106 µM) | 0.05 (≈ 0.106 µM) | 0.025 (≈ 0.0532 µM) |
| [2H]C([2H])([2H])N(Cc1ccc(-c2ccc(Cl)cc2)cc1)CC(O)(Cn1cncn1)c1ccc(F)cc1F (stereo unspecified) | 0.006 (≈ 0.0127 µM) | 0.006 (≈ 0.0127 µM) | 0.006 (≈ 0.0127 µM) | 0.006 (≈ 0.0127 µM) | 0.012 (≈ 0.0254 µM) | 0.012 (≈ 0.0254 µM) | 0.012 (≈ 0.0254 µM) |
| CN(Cc1ccc(-c2ccc(OC(F)(F)F)cc2)cc1)CC(O)(Cn1cncn1)c1ccc(F)cc1F (stereo unspecified) | 0.012 (≈ 0.0231 µM) | 0.012 (≈ 0.0231 µM) | 0.012 (≈ 0.0231 µM) | 0.006 (≈ 0.0116 µM) | 0.025 (≈ 0.0482 µM) | 0.025 (≈ 0.0482 µM) | 0.012 (≈ 0.0231 µM) |
| CN(Cc1ccc(-c2ccc(OC(F)(F)F)cc2)nc1)CC(O)(Cn1cncn1)c1ccc(F)cc1F (stereo unspecified) | 0.012 (≈ 0.0231 µM) | 0.012 (≈ 0.0231 µM) | 0.025 (≈ 0.0481 µM) | 0.006 (≈ 0.0116 µM) | 0.05 (≈ 0.0963 µM) | 0.025 (≈ 0.0481 µM) | 0.05 (≈ 0.0963 µM) |
| OC(CNCc1ccc(-c2ccc(Cl)cc2)cc1)(Cn1cncn1)c1ccc(F)cc1F (stereo unspecified) | 0.025 (≈ 0.055 µM) | 0.025 (≈ 0.055 µM) | 0.025 (≈ 0.055 µM) | 0.025 (≈ 0.055 µM) | 0.05 (≈ 0.11 µM) | 0.05 (≈ 0.11 µM) | 0.05 (≈ 0.11 µM) |
| CN(Cc1cnc(-c2ccc(Cl)cc2)s1)CC(O)(Cn1cncn1)c1ccc(F)cc1F (stereo unspecified) | 0.2 (≈ 0.42 µM) | 0.2 (≈ 0.42 µM) | 0.4 (≈ 0.84 µM) | 0.4 (≈ 0.84 µM) | 1.6 (≈ 3.36 µM) | 1.6 (≈ 3.36 µM) | 1.6 (≈ 3.36 µM) |
| CN(Cc1ccc(-c2ccc(C(F)(F)F)cc2)nc1)CC(O)(Cn1cncn1)c1ccc(F)cc1F (stereo unspecified) | 0.012 (≈ 0.0238 µM) | 0.012 (≈ 0.0238 µM) | 0.012 (≈ 0.0238 µM) | 0.006 (≈ 0.0119 µM) | 0.2 (≈ 0.397 µM) | 0.025 (≈ 0.0497 µM) | 0.025 (≈ 0.0497 µM) |
| CN(Cc1ccc(-c2ccc(Cl)cc2F)cc1)CC(O)(Cn1cncn1)c1ccc(F)cc1F (stereo unspecified) | 0.006 (≈ 0.0123 µM) | 0.006 (≈ 0.0123 µM) | 0.006 (≈ 0.0123 µM) | 0.006 (≈ 0.0123 µM) | 0.025 (≈ 0.0513 µM) | 0.012 (≈ 0.0246 µM) | 0.012 (≈ 0.0246 µM) |
| CCc1ccc(-c2ccc(CN(C)CC(O)(Cn3cncn3)c3ccc(F)cc3F)nc2)cc1 (stereo unspecified) | 0.025 (≈ 0.0539 µM) | 0.012 (≈ 0.0259 µM) | 0.012 (≈ 0.0259 µM) | 0.012 (≈ 0.0259 µM) | 0.1 (≈ 0.216 µM) | 0.05 (≈ 0.108 µM) | 0.025 (≈ 0.0539 µM) |
